Laboratory results published in the supplement of paper PMC6315032.

Legend:
Test in all cases: apparent dissociation constant (pKDapp, Kinobeads competition, Cheng-Prusoff corrected) (-log10 M); higher = tighter binding
ACVR1B = ACVR1B (UniProt P36896); conditions: affinity matrix / lysate: Kinobeads, mixed HEK293/K-562/placenta lysate
TAOK1 = TAOK1 (UniProt Q7L7X3); conditions: affinity matrix / lysate: Kinobeads, mixed HEK293/K-562/placenta lysate
MAP3K7 = MAP3K7 (UniProt O43318); conditions: affinity matrix / lysate: Kinobeads, mixed HEK293/K-562/placenta lysate
MAP3K7, sequence (O43318 whole entry): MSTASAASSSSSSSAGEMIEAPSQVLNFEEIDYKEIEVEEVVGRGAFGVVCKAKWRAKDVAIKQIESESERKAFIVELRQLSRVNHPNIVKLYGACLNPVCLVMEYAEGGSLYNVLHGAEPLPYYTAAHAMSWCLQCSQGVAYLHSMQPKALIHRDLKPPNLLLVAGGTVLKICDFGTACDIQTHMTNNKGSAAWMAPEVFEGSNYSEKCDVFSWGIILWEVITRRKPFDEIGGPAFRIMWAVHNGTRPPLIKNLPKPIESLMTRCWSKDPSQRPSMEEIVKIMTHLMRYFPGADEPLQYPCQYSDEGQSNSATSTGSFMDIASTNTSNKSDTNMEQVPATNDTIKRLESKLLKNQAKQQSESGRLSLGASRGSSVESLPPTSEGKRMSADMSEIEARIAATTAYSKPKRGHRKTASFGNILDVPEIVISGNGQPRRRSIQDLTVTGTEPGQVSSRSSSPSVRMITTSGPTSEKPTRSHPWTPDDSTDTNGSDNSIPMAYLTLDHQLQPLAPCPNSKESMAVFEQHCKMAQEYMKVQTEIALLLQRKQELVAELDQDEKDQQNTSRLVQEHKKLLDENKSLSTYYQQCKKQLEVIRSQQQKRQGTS

MAPK9 = MAPK9 (UniProt P45984); conditions: affinity matrix / lysate: Kinobeads, mixed HEK293/K-562/placenta lysate
ATM = ATM (UniProt Q13315); conditions: affinity matrix / lysate: Lipid Kinobeads, mixed HeLa/Jurkat/K-562 lysate
STRADA = STRADA (UniProt Q7RTN6); conditions: affinity matrix / lysate: Kinobeads, mixed HEK293/K-562/placenta lysate
STRADA, sequence (Q7RTN6 whole entry): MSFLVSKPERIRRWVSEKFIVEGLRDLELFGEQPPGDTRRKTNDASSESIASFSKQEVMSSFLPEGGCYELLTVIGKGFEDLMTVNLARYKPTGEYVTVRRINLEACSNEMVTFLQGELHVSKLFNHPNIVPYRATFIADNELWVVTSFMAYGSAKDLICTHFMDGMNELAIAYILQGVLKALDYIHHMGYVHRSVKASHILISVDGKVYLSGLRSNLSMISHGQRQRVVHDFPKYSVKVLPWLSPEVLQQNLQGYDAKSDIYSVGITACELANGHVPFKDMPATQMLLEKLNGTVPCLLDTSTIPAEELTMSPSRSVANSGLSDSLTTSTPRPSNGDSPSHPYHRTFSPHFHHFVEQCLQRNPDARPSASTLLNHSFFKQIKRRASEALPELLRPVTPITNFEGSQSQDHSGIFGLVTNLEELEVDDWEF

STK3 = STK3 (UniProt Q13188); conditions: affinity matrix / lysate: Kinobeads, mixed HEK293/K-562/placenta lysate
PKN3 = PKN3 (UniProt Q6P5Z2); conditions: affinity matrix / lysate: Kinobeads, mixed HEK293/K-562/placenta lysate
IRAK1 = IRAK1 (UniProt P51617); conditions: affinity matrix / lysate: Kinobeads, mixed HEK293/K-562/placenta lysate
BCR = BCR (UniProt P11274); conditions: affinity matrix / lysate: Kinobeads, mixed HEK293/K-562/placenta lysate
EPHB1 = EPHB1 (UniProt P54762); conditions: affinity matrix / lysate: Kinobeads, mixed HEK293/K-562/placenta lysate
EPHB1, sequence (P54762 whole entry): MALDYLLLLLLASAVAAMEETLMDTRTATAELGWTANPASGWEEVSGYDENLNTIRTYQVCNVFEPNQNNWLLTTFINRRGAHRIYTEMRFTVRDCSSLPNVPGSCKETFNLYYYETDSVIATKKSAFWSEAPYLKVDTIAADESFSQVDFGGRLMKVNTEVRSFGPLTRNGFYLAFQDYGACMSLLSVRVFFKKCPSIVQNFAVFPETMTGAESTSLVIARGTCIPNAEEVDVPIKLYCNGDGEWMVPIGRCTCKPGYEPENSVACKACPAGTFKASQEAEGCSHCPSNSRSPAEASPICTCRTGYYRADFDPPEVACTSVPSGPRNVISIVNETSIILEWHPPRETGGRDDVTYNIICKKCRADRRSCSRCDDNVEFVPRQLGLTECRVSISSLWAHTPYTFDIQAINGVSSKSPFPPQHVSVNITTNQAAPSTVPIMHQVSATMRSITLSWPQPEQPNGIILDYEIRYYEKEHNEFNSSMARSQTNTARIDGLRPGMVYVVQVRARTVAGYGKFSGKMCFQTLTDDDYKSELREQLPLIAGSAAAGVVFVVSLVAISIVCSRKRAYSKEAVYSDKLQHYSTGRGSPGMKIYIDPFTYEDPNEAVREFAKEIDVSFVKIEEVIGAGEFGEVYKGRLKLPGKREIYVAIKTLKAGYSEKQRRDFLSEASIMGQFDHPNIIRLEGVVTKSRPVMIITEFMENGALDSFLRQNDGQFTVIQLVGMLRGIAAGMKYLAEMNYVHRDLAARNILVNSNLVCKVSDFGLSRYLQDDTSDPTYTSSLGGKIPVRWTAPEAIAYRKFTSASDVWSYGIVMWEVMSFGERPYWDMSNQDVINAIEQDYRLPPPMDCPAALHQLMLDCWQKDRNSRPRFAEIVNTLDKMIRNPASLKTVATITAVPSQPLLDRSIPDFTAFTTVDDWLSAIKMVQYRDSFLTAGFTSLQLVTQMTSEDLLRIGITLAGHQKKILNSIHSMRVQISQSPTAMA

INSR = INSR (UniProt P06213); conditions: affinity matrix / lysate: Kinobeads, mixed HEK293/K-562/placenta lysate
CDK8 = CDK8 (UniProt P49336); conditions: affinity matrix / lysate: Kinobeads, mixed HEK293/K-562/placenta lysate
STK17A = STK17A (UniProt Q9UEE5); conditions: affinity matrix / lysate: Kinobeads, mixed HEK293/K-562/placenta lysate
PIM3 = PIM3 (UniProt Q86V86); conditions: affinity matrix / lysate: Kinobeads, mixed HEK293/K-562/placenta lysate
MERTK = MERTK (UniProt Q12866); conditions: affinity matrix / lysate: Kinobeads, mixed HEK293/K-562/placenta lysate
IRAK4 = IRAK4 (UniProt Q9NWZ3); conditions: affinity matrix / lysate: Kinobeads, mixed HEK293/K-562/placenta lysate
CSF1R = CSF1R (UniProt P07333); conditions: affinity matrix / lysate: Kinobeads, mixed HEK293/K-562/placenta lysate
MAPK14 = MAPK14 (UniProt Q16539); conditions: affinity matrix / lysate: Kinobeads, mixed HEK293/K-562/placenta lysate
MAPK14, sequence (Q16539 whole entry): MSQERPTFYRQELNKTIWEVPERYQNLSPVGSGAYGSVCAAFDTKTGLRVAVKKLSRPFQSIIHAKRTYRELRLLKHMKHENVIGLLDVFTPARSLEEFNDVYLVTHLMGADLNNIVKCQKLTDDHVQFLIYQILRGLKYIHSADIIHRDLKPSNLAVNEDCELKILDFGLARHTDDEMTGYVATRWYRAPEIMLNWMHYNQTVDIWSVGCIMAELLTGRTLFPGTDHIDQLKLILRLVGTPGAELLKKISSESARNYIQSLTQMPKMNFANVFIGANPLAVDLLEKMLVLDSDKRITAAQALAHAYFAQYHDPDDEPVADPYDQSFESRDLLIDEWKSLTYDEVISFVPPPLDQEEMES

LATS1 = LATS1 (UniProt O95835); conditions: affinity matrix / lysate: Kinobeads, mixed HEK293/K-562/placenta lysate
MAP3K1 = MAP3K1 (UniProt Q13233); conditions: affinity matrix / lysate: Kinobeads, mixed HEK293/K-562/placenta lysate
CHEK2 = CHEK2 (UniProt O96017); conditions: affinity matrix / lysate: Kinobeads, mixed HEK293/K-562/placenta lysate
HCK = HCK (UniProt P08631); conditions: affinity matrix / lysate: Kinobeads, mixed HEK293/K-562/placenta lysate
HIPK3 = HIPK3 (UniProt Q9H422); conditions: affinity matrix / lysate: Kinobeads, mixed HEK293/K-562/placenta lysate
CHEK1 = CHEK1 (UniProt O14757); conditions: affinity matrix / lysate: Kinobeads, mixed HEK293/K-562/placenta lysate
PIK3C3 = PIK3C3 (UniProt Q8NEB9); conditions: affinity matrix / lysate: Lipid Kinobeads, mixed HeLa/Jurkat/K-562 lysate
FES = FES (UniProt P07332); conditions: affinity matrix / lysate: Kinobeads, mixed HEK293/K-562/placenta lysate
MAPK3 = MAPK3 (UniProt P27361); conditions: affinity matrix / lysate: Kinobeads, mixed HEK293/K-562/placenta lysate
PIK3C2B = PIK3C2B (UniProt O00750)
PIK3C2B, sequence (O00750 whole entry): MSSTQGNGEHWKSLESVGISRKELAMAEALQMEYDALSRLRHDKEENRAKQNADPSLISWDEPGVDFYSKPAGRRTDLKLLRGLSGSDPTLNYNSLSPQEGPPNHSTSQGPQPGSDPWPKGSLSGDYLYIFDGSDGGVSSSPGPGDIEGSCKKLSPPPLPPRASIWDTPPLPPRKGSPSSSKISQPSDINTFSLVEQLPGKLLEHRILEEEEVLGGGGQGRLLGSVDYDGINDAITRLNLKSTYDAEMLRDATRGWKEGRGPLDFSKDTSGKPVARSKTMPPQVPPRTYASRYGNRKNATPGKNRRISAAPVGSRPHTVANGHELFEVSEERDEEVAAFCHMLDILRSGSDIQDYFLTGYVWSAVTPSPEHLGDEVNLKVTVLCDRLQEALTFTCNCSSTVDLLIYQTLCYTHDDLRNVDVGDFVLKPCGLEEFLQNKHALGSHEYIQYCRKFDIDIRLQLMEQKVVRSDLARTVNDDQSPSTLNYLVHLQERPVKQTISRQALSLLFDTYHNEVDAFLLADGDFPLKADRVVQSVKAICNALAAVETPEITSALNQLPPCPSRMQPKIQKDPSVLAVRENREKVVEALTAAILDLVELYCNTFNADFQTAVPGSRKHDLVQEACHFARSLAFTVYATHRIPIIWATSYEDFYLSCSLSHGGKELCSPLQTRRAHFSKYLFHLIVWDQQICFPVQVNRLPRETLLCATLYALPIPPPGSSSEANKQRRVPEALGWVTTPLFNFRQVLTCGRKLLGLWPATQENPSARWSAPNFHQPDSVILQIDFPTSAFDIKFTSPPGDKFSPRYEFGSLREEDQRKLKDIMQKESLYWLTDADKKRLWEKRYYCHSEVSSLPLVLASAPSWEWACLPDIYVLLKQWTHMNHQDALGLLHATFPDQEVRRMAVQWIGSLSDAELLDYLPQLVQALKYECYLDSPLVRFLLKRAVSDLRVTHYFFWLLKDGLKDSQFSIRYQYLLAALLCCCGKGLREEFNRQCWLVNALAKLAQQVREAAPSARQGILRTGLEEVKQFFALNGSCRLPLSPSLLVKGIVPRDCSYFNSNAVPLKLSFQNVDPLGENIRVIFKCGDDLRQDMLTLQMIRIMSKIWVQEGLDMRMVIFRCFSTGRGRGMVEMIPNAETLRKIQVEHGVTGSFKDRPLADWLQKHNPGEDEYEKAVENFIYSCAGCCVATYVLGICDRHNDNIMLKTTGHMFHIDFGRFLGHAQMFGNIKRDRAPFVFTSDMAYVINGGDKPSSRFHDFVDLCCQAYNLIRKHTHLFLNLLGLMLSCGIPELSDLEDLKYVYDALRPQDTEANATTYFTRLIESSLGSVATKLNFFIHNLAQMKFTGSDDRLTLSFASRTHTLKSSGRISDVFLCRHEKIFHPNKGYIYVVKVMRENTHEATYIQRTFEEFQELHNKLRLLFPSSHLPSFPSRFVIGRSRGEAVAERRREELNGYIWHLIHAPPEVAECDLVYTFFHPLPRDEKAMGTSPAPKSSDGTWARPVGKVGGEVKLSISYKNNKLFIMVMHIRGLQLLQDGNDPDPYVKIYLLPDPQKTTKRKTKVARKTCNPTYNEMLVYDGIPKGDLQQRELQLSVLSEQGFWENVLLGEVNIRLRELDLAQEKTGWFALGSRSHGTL

STK10 = STK10 (UniProt O94804); conditions: affinity matrix / lysate: Kinobeads, mixed HEK293/K-562/placenta lysate
TESK2 = TESK2 (UniProt Q96S53); conditions: affinity matrix / lysate: Kinobeads, mixed HEK293/K-562/placenta lysate
FGR = FGR (UniProt P09769); conditions: affinity matrix / lysate: Kinobeads, mixed HEK293/K-562/placenta lysate
TBK1 = TBK1 (UniProt Q9UHD2); conditions: affinity matrix / lysate: Kinobeads, mixed HEK293/K-562/placenta lysate
TBK1, sequence (Q9UHD2 whole entry): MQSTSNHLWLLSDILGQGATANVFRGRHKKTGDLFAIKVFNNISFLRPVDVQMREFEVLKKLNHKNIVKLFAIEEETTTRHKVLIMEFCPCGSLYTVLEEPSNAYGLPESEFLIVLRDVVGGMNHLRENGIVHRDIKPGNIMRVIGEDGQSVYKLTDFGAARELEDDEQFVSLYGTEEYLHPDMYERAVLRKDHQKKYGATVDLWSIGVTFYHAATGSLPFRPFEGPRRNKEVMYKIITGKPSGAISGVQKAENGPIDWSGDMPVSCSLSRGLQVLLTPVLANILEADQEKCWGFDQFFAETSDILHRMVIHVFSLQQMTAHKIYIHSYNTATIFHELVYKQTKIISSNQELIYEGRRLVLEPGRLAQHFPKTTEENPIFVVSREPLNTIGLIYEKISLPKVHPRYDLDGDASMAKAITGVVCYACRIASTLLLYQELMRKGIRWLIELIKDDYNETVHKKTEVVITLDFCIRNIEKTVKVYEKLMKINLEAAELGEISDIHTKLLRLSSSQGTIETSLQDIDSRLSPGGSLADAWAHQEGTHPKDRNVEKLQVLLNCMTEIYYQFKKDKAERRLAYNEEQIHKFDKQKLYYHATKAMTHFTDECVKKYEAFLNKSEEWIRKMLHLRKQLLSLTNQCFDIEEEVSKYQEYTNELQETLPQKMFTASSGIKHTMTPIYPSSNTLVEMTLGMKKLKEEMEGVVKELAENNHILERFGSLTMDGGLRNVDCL

[1] = affinity matrix / lysate: Lipid Kinobeads, mixed HeLa/Jurkat/K-562 lysate

apparent dissociation constant (-log10 M) (ACVR1B) | apparent dissociation constant (-log10 M) (TAOK1) | apparent dissociation constant (-log10 M) (MAP3K7) | apparent dissociation constant (-log10 M) (MAPK9) | apparent dissociation constant (-log10 M) (ATM) | apparent dissociation constant (-log10 M) (STRADA) | apparent dissociation constant (-log10 M) (STK3) | apparent dissociation constant (-log10 M) (PKN3) | apparent dissociation constant (-log10 M) (IRAK1) | apparent dissociation constant (-log10 M) (BCR) | apparent dissociation constant (-log10 M) (EPHB1) | apparent dissociation constant (-log10 M) (INSR) | apparent dissociation constant (-log10 M) (CDK8) | apparent dissociation constant (-log10 M) (STK17A) | apparent dissociation constant (-log10 M) (PIM3) | apparent dissociation constant (-log10 M) (MERTK) | apparent dissociation constant (-log10 M) (IRAK4) | apparent dissociation constant (-log10 M) (CSF1R) | apparent dissociation constant (-log10 M) (MAPK14) | apparent dissociation constant (-log10 M) (LATS1) | apparent dissociation constant (-log10 M) (MAP3K1) | apparent dissociation constant (-log10 M) (CHEK2) | apparent dissociation constant (-log10 M) (HCK) | apparent dissociation constant (-log10 M) (HIPK3) | apparent dissociation constant (-log10 M) (CHEK1) | apparent dissociation constant (-log10 M) (PIK3C3) | apparent dissociation constant (-log10 M) (FES) | apparent dissociation constant (-log10 M) (MAPK3) | apparent dissociation constant (-log10 M) (PIK3C2B; affinity matrix / lysate: Kinobeads, mixed HEK293/K-562/placenta lysate) | apparent dissociation constant (-log10 M) (PIK3C2B; [1]) | apparent dissociation constant (-log10 M) (STK10) | apparent dissociation constant (-log10 M) (TESK2) | apparent dissociation constant (-log10 M) (FGR) | apparent dissociation constant (-log10 M) (TBK1) | Structure (SMILES)
< 6 | < 6 | < 6 | < 6 | < 6 | < 6 | < 6 | < 6 | < 6 | < 6 | < 6 | < 6 | < 6 | < 6 | < 6 | < 6 | < 6 | < 6 | < 6 | < 6 | < 6 | < 6 | < 6 | < 6 | < 6 | < 6 | < 6 | < 6 | < 6 | < 6 | < 6 | < 6 | < 6 | < 6 | CCNC(=O)Nc1ccc(-c2nc(N3CCOC[C@@H]3C)c3c(n2)C(C)(C)S(=O)(=O)C3)cc1 [CZ415]
< 6 | < 6 | < 6 | < 6 | 6.36 | < 6 | < 6 | < 6 | < 6 | < 6 | < 6 | < 6 | < 6 | < 6 | < 6 | < 6 | < 6 | < 6 | < 6 | < 6 | < 6 | < 6 | < 6 | < 6 | < 6 | < 6 | < 6 | < 6 |  | < 6 | < 6 | < 6 | < 6 | < 6 | COc1ccc(-c2ccc3c(N4CCOC[C@@H]4C)nc(N4CCOC[C@@H]4C)nc3n2)cc1CO [AZD8055]
